13 molecules from patent publication US20240254087A1, “SELECTIVE, PARTIAL, AND ARRESTIN-BIASED 5-HT2A AGONISTS WITH UTILITY IN VARIOUS DISORDERS” (Saint Joseph's University, priority 2021, published 2024) can be followed below.

“Also recorded” adds a separate entry of the source. Read-outs that look alike come from different tables or passages of the source.

Assay [1] concerns the target T1, 5-HT2A (Homo sapiens, UniProt P28223). As to the kind of experiment: cell-based. The settings on record: read-out: 5-HT2A Gq Emax (% 5-HT), BRET, mean ± SEM. Further details: expressed in transfected cells; host or cells: HEK293T, transient. In general terms: Bioluminescence resonance energy transfer reports proximity on the nanometre scale.
Assay [2] deals with T1, 5-HT2A. As to the kind of experiment: cell-based. Further details: expressed in transfected cells; host or cells: HEK293T, transient. The settings on record: for Emax: read-out: 5-HT2A β-arrestin Emax (% 5-HT), BRET, mean ± SEM.
In another assay the test system is male C57BL/6J mice. In words: Head-twitch response (HTR) in mice. Type of assay: in vivo, mouse. The settings on record: for ED50: Mus musculus. The gist of the method: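 Head twitches in male C57BL/6J mice (6-8 weeks) carrying head-mounted magnets were detected with a magnetometer coil around a 12-cm glass cylinder during the dark phase. Coil signal was low-pass filtered at 2 kHz and digitized at 20 kHz. Counts were analyzed by one-way ANOVA with Dunnett's post hoc test.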

In another assay the target is 5-HT5a (Homo sapiens, UniProt P47898). As to the kind of experiment: Competitive radioligand binding (NIMH PDSP).
5-HT5a, sequence (P47898 whole entry, species assumed): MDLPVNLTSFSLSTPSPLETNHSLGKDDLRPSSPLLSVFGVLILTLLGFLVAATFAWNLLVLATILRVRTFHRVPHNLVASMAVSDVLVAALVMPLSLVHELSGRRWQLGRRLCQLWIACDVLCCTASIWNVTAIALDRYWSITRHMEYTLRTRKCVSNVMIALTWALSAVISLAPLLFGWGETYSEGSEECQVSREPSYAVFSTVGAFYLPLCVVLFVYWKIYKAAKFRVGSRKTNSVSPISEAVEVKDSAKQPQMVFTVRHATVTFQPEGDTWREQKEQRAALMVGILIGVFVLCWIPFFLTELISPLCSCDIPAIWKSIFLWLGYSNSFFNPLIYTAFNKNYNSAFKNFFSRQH
For a further assay, the target named is 5-HT6 (Homo sapiens, UniProt P50406). In words: Competitive radioligand binding (NIMH PDSP).
5-HT6, sequence (P50406 whole entry, species assumed): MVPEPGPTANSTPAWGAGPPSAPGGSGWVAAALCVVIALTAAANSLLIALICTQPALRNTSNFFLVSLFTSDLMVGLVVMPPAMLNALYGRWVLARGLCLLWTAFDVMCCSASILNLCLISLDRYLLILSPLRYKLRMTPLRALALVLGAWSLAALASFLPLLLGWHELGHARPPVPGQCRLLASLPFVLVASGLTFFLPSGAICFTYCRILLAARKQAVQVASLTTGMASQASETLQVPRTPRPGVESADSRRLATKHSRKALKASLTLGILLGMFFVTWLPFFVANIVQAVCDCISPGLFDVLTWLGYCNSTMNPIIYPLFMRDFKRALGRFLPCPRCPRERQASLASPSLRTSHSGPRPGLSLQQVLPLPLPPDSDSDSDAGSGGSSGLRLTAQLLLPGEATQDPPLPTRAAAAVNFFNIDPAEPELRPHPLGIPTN
The next assay concerns the target 5-HT7 (Homo sapiens, UniProt P34969). As to the kind of experiment: Competitive radioligand binding (NIMH PDSP).
A further assay has as its target 5-HT2B (Homo sapiens, UniProt P41595). As to the kind of experiment: BRET Gq dissociation, 5-HT2B. Type of assay: cell-based. Further details: expressed in transfected cells; host or cells: HEK293T, transient. The settings on record: for Emax: read-out: 5-HT2B Gq Dissociation (BRET) EMAX ± SEM (%5-HT).
Setting [3] is: SC, except DOI and 25D-NBOMe IP.
Setting [4] is: read-out: HTR ED50 mg/kg (95% CI), SC, except DOI and 25D-NBOMe IP.
[5] abbreviates: read-out: HTR ED50 μmol/kg (95% CI), SC, except DOI and 25D-NBOMe IP.

T1 sequence (P28223 whole entry): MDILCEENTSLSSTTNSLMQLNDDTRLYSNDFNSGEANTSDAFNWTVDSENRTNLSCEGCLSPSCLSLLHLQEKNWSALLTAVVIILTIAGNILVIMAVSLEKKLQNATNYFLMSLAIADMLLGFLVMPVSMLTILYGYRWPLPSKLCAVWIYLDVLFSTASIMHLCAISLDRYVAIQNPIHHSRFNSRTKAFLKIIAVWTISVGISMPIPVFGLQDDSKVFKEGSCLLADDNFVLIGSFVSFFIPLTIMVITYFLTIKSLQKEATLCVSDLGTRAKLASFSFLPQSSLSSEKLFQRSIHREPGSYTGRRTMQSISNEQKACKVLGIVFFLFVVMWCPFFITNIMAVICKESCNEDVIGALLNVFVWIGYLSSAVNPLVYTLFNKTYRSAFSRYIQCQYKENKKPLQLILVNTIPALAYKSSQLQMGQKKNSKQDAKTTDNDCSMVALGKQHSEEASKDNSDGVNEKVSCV
5-HT2B, sequence (P41595 whole entry): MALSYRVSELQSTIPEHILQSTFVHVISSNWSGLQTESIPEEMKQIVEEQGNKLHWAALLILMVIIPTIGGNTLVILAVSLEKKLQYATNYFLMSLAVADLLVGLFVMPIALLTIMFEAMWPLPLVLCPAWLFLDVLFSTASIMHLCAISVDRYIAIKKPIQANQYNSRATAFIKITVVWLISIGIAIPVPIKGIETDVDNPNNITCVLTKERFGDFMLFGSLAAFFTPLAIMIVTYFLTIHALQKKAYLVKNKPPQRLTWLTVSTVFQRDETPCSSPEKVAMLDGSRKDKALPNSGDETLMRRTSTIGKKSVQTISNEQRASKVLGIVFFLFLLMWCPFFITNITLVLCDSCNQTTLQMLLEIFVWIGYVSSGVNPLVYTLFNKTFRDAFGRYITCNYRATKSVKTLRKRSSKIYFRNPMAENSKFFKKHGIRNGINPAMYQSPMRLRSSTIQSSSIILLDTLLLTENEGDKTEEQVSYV
5-HT7, sequence (P34969 whole entry, species assumed): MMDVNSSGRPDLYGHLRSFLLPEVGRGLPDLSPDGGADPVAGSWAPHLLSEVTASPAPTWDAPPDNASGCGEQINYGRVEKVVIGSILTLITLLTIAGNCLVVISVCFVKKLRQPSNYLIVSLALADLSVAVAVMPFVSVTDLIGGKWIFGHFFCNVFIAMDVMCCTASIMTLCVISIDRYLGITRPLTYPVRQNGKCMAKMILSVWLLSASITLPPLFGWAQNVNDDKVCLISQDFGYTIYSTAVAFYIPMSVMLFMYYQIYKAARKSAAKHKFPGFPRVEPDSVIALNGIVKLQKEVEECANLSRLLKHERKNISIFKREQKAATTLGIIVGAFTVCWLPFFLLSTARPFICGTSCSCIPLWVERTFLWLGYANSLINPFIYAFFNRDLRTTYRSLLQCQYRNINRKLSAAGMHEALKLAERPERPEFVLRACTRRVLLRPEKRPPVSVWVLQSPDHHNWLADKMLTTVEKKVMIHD

As a reminder, the Emax is the size of the effect at its maximum, as opposed to the concentration needed. Consider `COc1cc([N+](=O)[O-])c(OC)cc1CCNCc1cccc(C)c1` [25N-NB-3-Me (22), [2-(2,5-dimethoxy-4-nitrophenyl)ethyl][(3-methylphenyl)methyl]amine], for which the Emax came to 41.7 ± 3.4% on 5-HT2A [1] and 94.7 ± 4.2% at 5-HT2A [2].
As for `COc1cc([N+](=O)[O-])c(OC)cc1CCNCc1ccccc1OC(F)(F)F` [25N-NBOCF3 (12)], in the assay on male C57BL/6J mice, the “Induction of the HTR in mice (in words)” value is reported as “do not induce the HTR” and the “Max HTR response during a 30-min assessment (maximum counts ÷ baseline response)” value is reported as 3.9-fold increase. Also, in the assay with male C57BL/6J mice (setting [3]), the “HTR ED50 μmol/kg (95% CI)” value is 13.5 (6.81-26.8) μmol/kg and the “HTR ED50 mg/kg (95% CI)” value was 5.90 (2.97-11.7) mg/kg. In addition, the “5-HT5a pKi affinity (Ki ± SEM)” value at 5-HT5a was determined as 5.80. Also, the “5-HT6 pKi affinity (Ki ± SEM)” value on 5-HT6 was found to be 6.12. On 5-HT7, the “5-HT7 pKi affinity (Ki ± SEM)” value is listed as under 5.
As a reminder, the Ki is a measure of affinity in units of concentration, obtained from inhibition or displacement. High values mean lower affinity, low ones higher affinity. In the case of `COc1cc([N+](=O)[O-])c(OC)cc1CCNCc1ccccc1[N+](=O)[O-]` [25N-NBNO2 (15), [2-(2,5-dimethoxy-4-nitrophenyl)ethyl][(2-nitrophenyl)methyl]amine], the “Induction of the HTR in mice (in words)” value with male C57BL/6J mice was “lacked a HTR; also recorded: failed to induce a HTR; also recorded: do not induce the HTR”. The “Max HTR response during a 30-min assessment (maximum counts ÷ baseline response)” value in the assay on male C57BL/6J mice is 1.9-fold increase. The ED50 in the assay with male C57BL/6J mice (setting [4]) was over 100 mg/kg. Moreover, the “5-HT2B Gq Dissociation (BRET) EMAX ± SEM (%5-HT)” value on 5-HT2B is “No activity”. Moreover, the “5-HT2B Gq Dissociation (BRET) pEC50 ± SEM” value at 5-HT2B is recorded as “No activity”. Besides, the Ki at 5-HT5a, at 5-HT6 and at 5-HT7 was over 10 µM in each case.
With `COc1cc([N+](=O)[O-])c(OC)cc1CCNCc1cccc(C)c1O` [25N-NB-2-OH-3-Me (18), 2-({[2-(2,5-dimethoxy-4-nitrophenyl)ethyl]amino}methyl)-6-methylphenol], in the assay with male C57BL/6J mice, the “Induction of the HTR in mice (in words)” value is “failed to induce the HTR; also recorded: do not induce the HTR”. In addition, in the assay with male C57BL/6J mice, the “Max HTR response during a 30-min assessment (maximum counts ÷ baseline response)” value is recorded as 1.0-fold increase. The ED50 in the assay on male C57BL/6J mice (setting [4]) was over 10 mg/kg. For the same molecule, the “5-HT2B Gq Dissociation (BRET) EMAX ± SEM (%5-HT)” value at 5-HT2B is on record as “No activity”. Besides, the “5-HT2B Gq Dissociation (BRET) pEC50 ± SEM” value on 5-HT2B is “No activity”. Further, the Emax at 5-HT2A [1] worked out at 50.8 ± 1.6%; on 5-HT2A [2], 131%. Moreover, on 5-HT2A [2] (BRET), the “Difference in Emax (β-arrestin vs Gq)” value came to 81%. Also, at 5-HT2A [2] (BRET, mean ± SEM), the “5-HT2A β-arrestin Emax (% 5-HT)” value is 130.7 ± 4.0 % 5-HT. Also, the Ki at 5-HT5a was 0.501 µM; on 5-HT6, 0.209 µM; at 5-HT7 it was 0.871 µM.
One may read the EC50 as the midpoint of the concentration-response curve. Read a high EC50 as a less potent agent. Turning to `COc1cc([N+](=O)[O-])c(OC)cc1CCNCc1ccccc1` [25N-NB (2), Benzyl[2-(2,5-dimethoxy-4-nitrophenyl)ethyl]amine], in the assay on male C57BL/6J mice, the “Max HTR response during a 30-min assessment (maximum counts ÷ baseline response)” value is on record as 9.1-fold increase. Also, the ED50 worked out at 3.53 µmol/kg with male C57BL/6J mice (setting [5]) and 1.25 mg/kg with male C57BL/6J mice (setting [4]). This molecule also gave an EC50 at 5-HT2B of 0.038 µM. The Emax on 5-HT2B came to 32.6 ± 2.3%; on 5-HT2A [1] it was 79.5 ± 1.5%; at 5-HT2A [2] it was 115 ± 4.1%.
`COc1cc([N+](=O)[O-])c(OC)cc1CCN` [2C-N (1), 2-(2,5-dimethoxy-4-nitrophenyl)ethan-1-amine, reference compound]: the EC50 on 5-HT2B is 0.0741 µM. Further, the Emax on 5-HT2B came to 87.7 ± 2.8%; at 5-HT2A [1], 87.9 ± 1.4%; at 5-HT2A [2], 83.8 ± 2.5%. Also, the Ki at 5-HT5a is over 10 µM; on 5-HT6, 0.251 µM; on 5-HT7 it was over 10 µM.
As to `COc1cc([N+](=O)[O-])c(OC)cc1CCNCc1ccccc1-c1ccccc1` [25N-NBPh (17), ({[1,1′-biphenyl]-2-yl}methyl)[2-(2,5-dimethoxy-4-nitrophenyl)ethyl]amine], in the assay on male C57BL/6J mice, the “Induction of the HTR in mice (in words)” value is on record as “lacked a HTR” and the “Max HTR response during a 30-min assessment (maximum counts ÷ baseline response)” value is 2.1-fold increase. Besides, the ED50 in the assay with male C57BL/6J mice (setting [4]) is over 100 mg/kg. At 5-HT2B, it took 0.316 µM to reach a half-maximal effect (EC50) and the Emax worked out at 47 ± 5.5%. Moreover, the Emax on 5-HT2A [1] came to 23.2 ± 1.5%. Also, the Emax on 5-HT2A [2] was 109 ± 2.8%.
Consider `COc1cc([N+](=O)[O-])c(OC)cc1CCNCc1cccc(F)c1OC` [25N-NB-2-MeO-3-F (19), [2-(2,5-dimethoxy-4-nitrophenyl)ethyl][(3-fluoro-2-methoxyphenyl)methyl]amine], for which the Emax on 5-HT2A [1] turned out to be 71.1 ± 1.9%; on 5-HT2A [2], 120 ± 3.3%. The values for the Ki at 5-HT5a, on 5-HT6 and at 5-HT7 were 2.88 µM, over 10 µM and over 10 µM, respectively.
Consider `COc1cc([N+](=O)[O-])c(OC)cc1CCNCc1cccc2ccccc12` [25N-N-1-Nap (16), [2-(2,5-dimethoxy-4-nitrophenyl)ethyl][(naphthalen-1-yl)methyl]amine], for which, in the assay with male C57BL/6J mice, the “Induction of the HTR in mice (in words)” value is recorded as “failed to induce the HTR”. Further, the “Max HTR response during a 30-min assessment (maximum counts ÷ baseline response)” value in the assay on male C57BL/6J mice is given as 1.2-fold increase. In the assay with male C57BL/6J mice (setting [4]), the ED50 was over 30 mg/kg. Further, at 5-HT2B, the “5-HT2B Gq Dissociation (BRET) EMAX ± SEM (%5-HT)” value was “No activity”. Further, the “5-HT2B Gq Dissociation (BRET) pEC50 ± SEM” value on 5-HT2B is listed as “No activity”. The Emax at 5-HT2A [1] came to 23.7 ± 1.4%; at 5-HT2A [2] it was 78.2 ± 1.8%. Further, the Ki on 5-HT5a was 1.1 µM; at 5-HT6 it was 0.0794 µM; on 5-HT7, 0.186 µM.
Consider `COc1cc([N+](=O)[O-])c(OC)cc1CCNCc1cccc(O)c1` [25N-NB-3-OH (21), 3-({[2-(2,5-dimethoxy-4-nitrophenyl)ethyl]amino}methyl)phenol], for which the “Induction of the HTR in mice (in words)” value in the assay on male C57BL/6J mice is “inactive in the HTR”; with male C57BL/6J mice (listed as 25N—NB-3-HO (21)) it was “do not induce the HTR”. The “Max HTR response during a 30-min assessment (maximum counts ÷ baseline response)” value in the assay with male C57BL/6J mice is 1.7-fold increase. In addition, the ED50 in the assay with male C57BL/6J mice (setting [4]) was over 30 mg/kg. Moreover, the values for the Emax on 5-HT2A [1] and on 5-HT2A [2] were 49.8 ± 4.3% and 119 ± 5.2%, respectively. In addition, the Ki on 5-HT5a is over 10 µM; on 5-HT6, 0.0692 µM; at 5-HT7, over 10 µM.
For the molecule `COc1cc([N+](=O)[O-])c(OC)cc1CCNCc1ccccc1OC` [25N-NBOMe (4), [2-(2,5-dimethoxy-4-nitrophenyl)ethyl] [(2-methoxyphenyl)methyl]amine], in the assay with male C57BL/6J mice, the “Max HTR response during a 30-min assessment (maximum counts ÷ baseline response)” value is given as 15.6-fold increase. For the same molecule, the ED50 with male C57BL/6J mice (setting [5]) is 0.29 µmol/kg; in the assay on male C57BL/6J mice (setting [4]), 0.11 mg/kg. For the same molecule, the response on 5-HT2B was half-maximal at 0.00389 µM (EC50). In addition, the Emax on 5-HT2B stood at 61.8 ± 2.3%; at 5-HT2A [1] it was 98%; at 5-HT2A [2], 136 ± 3.8%. The figures for the Ki on 5-HT5a, on 5-HT6 and on 5-HT7 were over 10 µM, 0.055 µM and over 10 µM, respectively.
As to `COc1cc([N+](=O)[O-])c(OC)cc1CCNCc1ccccc1C(F)(F)F` [25N-NBCF3 (14), [2-(2,5-dimethoxy-4-nitrophenyl)ethyl]({[2-(trifluoromethyl)phenyl]methyl}) amine], in the assay with male C57BL/6J mice, the “Induction of the HTR in mice (in words)” value is given as “lacked a HTR; also recorded: failed to induce a HTR; also recorded: do not induce the HTR”. Also, the “Max HTR response during a 30-min assessment (maximum counts ÷ baseline response)” value in the assay on male C57BL/6J mice was 2.6-fold increase. Also, in the assay on male C57BL/6J mice (setting [4]), the ED50 is over 30 mg/kg. Further, the Ki at 5-HT5a is over 10 µM; on 5-HT6, 0.407 µM; at 5-HT7, over 10 µM.
Regarding `COc1cc([N+](=O)[O-])c(OC)cc1CCNCc1ccccc1I` [25N-NBI (10)], the “Max HTR response during a 30-min assessment (maximum counts ÷ baseline response)” value in the assay with male C57BL/6J mice is listed as 3.0-fold increase. Moreover, the ED50 was determined as 10.3 µmol/kg in the assay with male C57BL/6J mice (setting [5]) and 4.94 mg/kg in the assay with male C57BL/6J mice (setting [4]). At 5-HT2B, this molecule had an EC50 of 0.0295 µM. In addition, the Emax at 5-HT2B turned out to be 21.8 ± 2.3%. Also, the Ki is over 10 µM at 5-HT5a, 0.38 µM at 5-HT6 and over 10 µM on 5-HT7.
